Measurements as given in ChEMBL document CHEMBL5316343, “Design, Synthesis, and Biological Evaluation of a Potent Dual EZH2-BRD4 Inhibitor for the Treatment of Some Solid Tumors” (J Med Chem, 2023).
Each block holds one compound with its values, some of them ahead of it. Activity calls are given as the source filed them. The calls are words filed in the database; no cut-off is given here.

Key:
[1] = target: T1, Histone-lysine N-methyltransferase EZH2 (Homo sapiens, UniProt Q15910); test: Inhibition of EZH2 (unknown origin) by radiometric assay
Target sequence in this assay (Q15910 whole entry): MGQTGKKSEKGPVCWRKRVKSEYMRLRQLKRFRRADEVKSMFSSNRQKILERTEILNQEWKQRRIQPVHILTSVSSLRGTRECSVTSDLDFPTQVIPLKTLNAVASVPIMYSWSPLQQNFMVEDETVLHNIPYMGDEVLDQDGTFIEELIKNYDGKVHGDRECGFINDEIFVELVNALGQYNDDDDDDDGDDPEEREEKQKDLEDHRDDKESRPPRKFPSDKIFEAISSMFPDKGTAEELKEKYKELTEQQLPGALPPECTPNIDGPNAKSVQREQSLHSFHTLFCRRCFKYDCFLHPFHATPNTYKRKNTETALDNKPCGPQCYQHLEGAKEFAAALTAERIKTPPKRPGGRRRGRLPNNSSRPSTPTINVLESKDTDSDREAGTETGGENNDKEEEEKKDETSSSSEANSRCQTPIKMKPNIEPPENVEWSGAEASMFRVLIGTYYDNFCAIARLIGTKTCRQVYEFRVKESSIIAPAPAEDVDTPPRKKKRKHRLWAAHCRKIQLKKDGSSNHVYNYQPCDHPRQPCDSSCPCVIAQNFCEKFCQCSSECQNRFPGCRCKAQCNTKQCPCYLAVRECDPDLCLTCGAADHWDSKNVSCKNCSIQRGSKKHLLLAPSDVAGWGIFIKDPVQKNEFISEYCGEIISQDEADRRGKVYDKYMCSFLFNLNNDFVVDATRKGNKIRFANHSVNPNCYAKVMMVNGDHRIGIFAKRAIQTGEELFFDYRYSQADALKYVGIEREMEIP

[2] = target: Bromodomain-containing protein 4 (Homo sapiens, UniProt O60885); test: Inhibition of BRD4 (unknown origin) by HTRF analysis
[3] = target: T2, Histone-lysine N-methyltransferase EZH1 (Homo sapiens, UniProt Q92800); test: Inhibition of EZH1 (unknown origin) by radiometric assay
T2 sequence (Q92800 whole entry): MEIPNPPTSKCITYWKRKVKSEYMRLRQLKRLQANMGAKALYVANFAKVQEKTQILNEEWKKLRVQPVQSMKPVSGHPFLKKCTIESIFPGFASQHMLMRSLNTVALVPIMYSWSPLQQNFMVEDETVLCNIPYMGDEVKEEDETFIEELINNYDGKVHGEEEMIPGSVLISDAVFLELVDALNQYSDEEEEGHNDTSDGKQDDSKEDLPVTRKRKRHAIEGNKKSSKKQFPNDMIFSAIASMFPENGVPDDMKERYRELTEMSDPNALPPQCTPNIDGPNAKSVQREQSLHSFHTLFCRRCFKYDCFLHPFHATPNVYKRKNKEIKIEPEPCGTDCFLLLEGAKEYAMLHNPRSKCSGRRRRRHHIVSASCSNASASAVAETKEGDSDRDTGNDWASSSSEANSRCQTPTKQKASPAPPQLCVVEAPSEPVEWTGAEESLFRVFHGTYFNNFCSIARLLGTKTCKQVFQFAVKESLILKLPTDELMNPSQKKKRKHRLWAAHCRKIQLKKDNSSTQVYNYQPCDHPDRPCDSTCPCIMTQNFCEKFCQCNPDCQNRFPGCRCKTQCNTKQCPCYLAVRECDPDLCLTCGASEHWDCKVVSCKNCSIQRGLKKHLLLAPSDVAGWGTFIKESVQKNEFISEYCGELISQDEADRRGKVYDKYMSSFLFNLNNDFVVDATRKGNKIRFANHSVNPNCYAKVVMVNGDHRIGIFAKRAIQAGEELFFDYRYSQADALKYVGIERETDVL

[4] = target: T1, Histone-lysine N-methyltransferase EZH2; test: Inhibition of EZH2 in human MDA-MB-231 cells assessed as decrease in H3K27me3 level at 5 uM by fluorescence based analysis; assay type: cell-based
Target sequence in this assay (Q15910 whole entry, looked up): as the sequence (Q15910 whole entry) above

[5] = target: T1, Histone-lysine N-methyltransferase EZH2; test: Inhibition of EZH2 in human BX-PC-3 cells assessed as decrease in H3K27me3 level at 5 uM by fluorescence based analysis; assay type: cell-based; conditions: BXPC-3
Target sequence in this assay (Q15910 whole entry, looked up): as the sequence (Q15910 whole entry) above

[6] = target: T1, Histone-lysine N-methyltransferase EZH2; test: Inhibition of EZH2 in human MDA-MB-231 cells assessed as increase in H3K27ac level at 5 uM by fluorescence based analysis; assay type: cell-based
Target sequence in this assay (Q15910 whole entry, looked up): as the sequence (Q15910 whole entry) above

[7] = target: T1, Histone-lysine N-methyltransferase EZH2; test: Inhibition of EZH2 in human BXPC-3 cells assessed as increase in H3K27ac level at 5 uM by fluorescence based analysis; assay type: cell-based
Target sequence in this assay (Q15910 whole entry, looked up): as the sequence (Q15910 whole entry) above

MDA-MB-231 [8] = test: Inhibition of colony formation in human MDA-MB-231 cells assessed as reduction in colony size at 0.1 to 2.5 uM incubated for 10 to 14 days in the presence of JQ1 by crystal violet staining based analysis; assay type: functional, cell-based; conditions: dose 0.1-2.5 µM, time 10-14 day
MDA-MB-231 [9] = test: Inhibition of colony formation in human MDA-MB-231 cells assessed as reduction in number of cell colonies at 0.1 to 2.5 uM incubated for 10 to 14 days in the presence of JQ1 by crystal violet staining based analysis; assay type: functional; conditions: dose 0.1-2.5 µM, time 10-14 day
BXPC-3 [10] = test: Inhibition of colony formation in human BXPC-3 cells assessed as reduction in colony size at 0.1 to 2.5 uM incubated for 10 to 14 days in the presence of JQ1 by crystal violet staining based analysis; assay type: functional, cell-based; conditions: dose 0.1-2.5 µM, time 10-14 day
BXPC-3 [11] = test: Inhibition of colony formation in human BXPC-3 cells assessed as reduction in number of cell colony at 0.1 to 2.5 uM incubated for 10 to 14 days in the presence of JQ1 by crystal violet staining based analysis; assay type: functional; conditions: dose 0.1-2.5 µM, time 10-14 day
MDA-MB-231 [12] = test: Inhibition of colony formation in human MDA-MB-231 cells incubated for 10 to 14 days in the presence of JQ1 by crystal violet staining based analysis; assay type: functional, cell-based; conditions: dose 0.1-2.5 µM, time 10-14 day
BXPC-3 [13] = test: Inhibition of colony formation in human BXPC-3 cells incubated for 10 to 14 days in the presence of JQ1 by crystal violet staining based analysis; assay type: functional, cell-based; conditions: dose 0.1-2.5 µM, time 10-14 day
MDA-MB-231 [14] = test: Inhibition of colony formation in human MDA-MB-231 cells assessed as reduction in colony size at 2.5 uM incubated for 10 to 14 days by crystal violet staining based analysis; assay type: functional, cell-based; conditions: time 10-14 day
MDA-MB-231 [15] = test: Inhibition of colony formation in human MDA-MB-231 cells assessed as reduction in number of cell colonies at 2.5 uM incubated for 10 to 14 days by crystal violet staining based analysis; assay type: functional; conditions: time 10-14 day
BXPC-3 [16] = test: Inhibition of colony formation in human BXPC-3 cells assessed as reduction in colony size at 2.5 uM incubated for 10 to 14 days by crystal violet staining based analysis; assay type: functional, cell-based; conditions: time 10-14 day
BXPC-3 [17] = test: Inhibition of colony formation in human BXPC-3 cells assessed as reduction in number of cell colonies at 2.5 uM incubated for 10 to 14 days by crystal violet staining based analysis; assay type: functional; conditions: time 10-14 day
MDA-MB-231 [18] = test: Induction of apoptosis in human MDA-MB-231 cells assessed as viable cells at 5 uM incubated for 48 hrs by Annexin V-FITC/PI staining based flow cytometric analysis (reference value: 97.63%); assay type: functional; conditions: read-out: Activity
MDA-MB-231 [19] = test: Induction of apoptosis in human MDA-MB-231 cells assessed as early apoptotic cells at 5 uM incubated for 48 hrs by Annexin V-FITC/PI staining based flow cytometric analysis (reference value: 0.69%); assay type: functional
MDA-MB-231 [20] = test: Induction of apoptosis in human MDA-MB-231 cells assessed as late apoptotic cells at 5 uM incubated for 48 hrs by Annexin V-FITC/PI staining based flow cytometric analysis (reference value: 1.06%); assay type: functional
MDA-MB-231 [21] = test: Induction of apoptosis in human MDA-MB-231 cells assessed as necrotic cells at 5 uM incubated for 48 hrs by Annexin V-FITC/PI staining based flow cytometric analysis (reference value: 0.63%); assay type: functional
BXPC-3 [22] = test: Induction of apoptosis in human BXPC-3 cells assessed as viable cells at 5 uM incubated for 48 hrs by Annexin V-FITC/PI staining based flow cytometric analysis (reference value: 90.70%); assay type: functional; conditions: read-out: Activity
BXPC-3 [23] = test: Induction of apoptosis in human BXPC-3 cells assessed as early apoptotic cells at 5 uM incubated for 48 hrs by Annexin V-FITC/PI staining based flow cytometric analysis (reference value: 3.28 %); assay type: functional
BXPC-3 [24] = test: Induction of apoptosis in human BXPC-3 cells assessed as late apoptotic cells at 5 uM incubated for 48 hrs by Annexin V-FITC/PI staining based flow cytometric analysis (reference value: 4.38 %); assay type: functional
BXPC-3 [25] = test: Induction of apoptosis in human BXPC-3 cells assessed as necrotic cells at 5 uM incubated for 48 hrs by Annexin V-FITC/PI staining based flow cytometric analysis (reference value: 1.65 %); assay type: functional
MDA-MB-231 [26] = test: Inhibition of cell proliferation in human MDA-MB-231 cells assessed as decrease in c-Myc protein level at 5 uM incubated for 48 hrs by IHC analysis; assay type: functional, cell-based
MDA-MB-231 [27] = test: Inhibition of cell proliferation in human MDA-MB-231 cells assessed as decrease in c-Myc mRNA level at 5 uM incubated for 48 hrs by qRT-PCR analysis; assay type: functional, cell-based
BXPC-3 [28] = test: Inhibition of cell proliferation in human BXPC-3 cells assessed as decrease in c-Myc protein level at 5 uM incubated for 48 hrs by IHC analysis; assay type: functional, cell-based
BXPC-3 [29] = test: Inhibition of cell proliferation in human BXPC-3 cells assessed as decrease in c-Myc mRNA level at 5 uM incubated for 48 hrs by qRT-PCR analysis; assay type: functional, cell-based
BXPC-3 [30] = test: Antitumor activity against human BXPC-3 cells xenografted in Balb/c nude mouse assessed as reduction in tumor growth at 60 mg/kg, ip administered daily for 30 days; assay type: functional, organism-based; conditions: time 30.0 day
[31] = Toxicity in Balb/c nude mouse xenografted with human BXPC-3 cells assessed as effect on body weight at 60 mg/kg, ip administered daily for 30 days; assay type: organism-based; conditions: in vivo, 720 h, time 30 day
Mus musculus [32] = test: In vivo inhibition of EZH2 in Balb/c nude mouse xenografted with human BXPC-3 cells assessed as reduction in H3K27me3 level in tumor at 60 mg/kg, ip administered daily for 30 days by IHC analysis; assay type: functional, organism-based; conditions: time 30.0 day
Mus musculus [33] = test: In vivo inhibition of EZH2 in Balb/c nude mouse xenografted with human BXPC-3 cells assessed as increase in H3K27ac level in tumor at 60 mg/kg, ip administered daily for 30 days by IHC analysis; assay type: functional, organism-based; conditions: time 30.0 day

Compound: Cc1cc(C)c(CNC(=O)c2cc(-c3cn(C)c(=O)c4[nH]ccc34)cc3[nH]ccc23)c(=O)[nH]1
IC50 [1]: 0.083 µM | IC50 [2]: > 0.3 µM

Compound: Cc1[nH]c(=O)c(CNC(=O)c2cc(-c3cn(C)c(=O)c4[nH]ccc34)cc3c2c(C)cn3CC2CCCCC2)c2c1CCCC2
IC50 [1]: > 0.1 µM | IC50 [2]: > 0.3 µM

Compound: CCC(C)n1cc(C)c2c(C(=O)NCc3c(C)cc(C)[nH]c3=O)cc(-c3ccc(N4CCNCC4)nc3)cc21 (stereo unspecified)
IC50 [3]: 0.124 µM | inhibition [4]: Active | inhibition [5]: Active | inhibition [6]: Active | inhibition [7]: Active | inhibition (MDA-MB-231 [8]): Active | inhibition (MDA-MB-231 [9]): Active | inhibition (BXPC-3 [10]): Active | inhibition (BXPC-3 [11]): Active | inhibition (MDA-MB-231 [12]): Dose-Dependent Effect | inhibition (BXPC-3 [13]): Dose-Dependent Effect | inhibition (MDA-MB-231 [14]): inactive | inhibition (MDA-MB-231 [15]): inactive | inhibition (BXPC-3 [16]): inactive | inhibition (BXPC-3 [17]): inactive | viability at 5 µM (MDA-MB-231 [18]): 97% | Activity (MDA-MB-231 [19]): 1.83% | Activity (MDA-MB-231 [20]): 0.92% | Activity (MDA-MB-231 [21]): 0.3% | viability at 5 µM (BXPC-3 [22]): 91.9% | Activity (BXPC-3 [23]): 3.18% | Activity (BXPC-3 [24]): 3.86% | Activity (BXPC-3 [25]): 0.98% | inhibition (MDA-MB-231 [26]): inactive | inhibition (MDA-MB-231 [27]): inactive | inhibition (BXPC-3 [28]): inactive | inhibition (BXPC-3 [29]): inactive | Activity (BXPC-3 [30]): inactive | Activity [31]: Non-Toxic | inhibition (Mus musculus [32]): Active | inhibition (Mus musculus [33]): Active

Compound: Cc1cc(C)c(CNC(=O)c2cc(-c3cn(C)c(=O)c4[nH]ccc34)cc3c2cnn3C2CCCC2)c(=O)[nH]1
IC50 [1]: 0.037 µM | IC50 [2]: > 0.3 µM

Compound: Cc1cc(C)c(CNC(=O)c2cc(-c3cn(C)c(=O)c4[nH]ccc34)cc3c2ccn3C2CCCC2)c(=O)[nH]1
IC50 [1]: 0.005 µM | IC50 [2]: 0.278 µM

Compound: Cc1cc(C)c(CNC(=O)c2cc(-c3cn(C)c(=O)c4[nH]ccc34)cc3c2ccn3C(C)C)c(=O)[nH]1
IC50 [1]: 0.0057 µM | IC50 [2]: 0.214 µM

Next, values leading:

IC50 [1]: 0.0052 µM | IC50 [2]: > 0.3 µM
Compound: CCC(C)n1ccc2c(C(=O)NCc3c4c(c(C)[nH]c3=O)CCCC4)cc(-c3cn(C)c(=O)c4[nH]ccc34)cc21 (stereo unspecified)

IC50 [1]: > 0.1 µM | IC50 [2]: > 0.3 µM
Compound: Cc1[nH]c(=O)c(CNC(=O)c2cc(-c3cn(C)c(=O)c4[nH]ccc34)cc3[nH]cc(C)c23)c2c1CCCC2

IC50 [1]: 0.0028 µM | IC50 [2]: 0.173 µM
Compound: CCCC(C)n1ccc2c(C(=O)NCc3c(C)cc(C)[nH]c3=O)cc(-c3cn(C)c(=O)c4[nH]ccc34)cc21 (stereo unspecified)

IC50 [1]: 0.016 µM | IC50 [2]: > 0.3 µM
Compound: CCC(CC)n1ccc2c(C(=O)NCc3c4c(c(C)[nH]c3=O)CCCC4)cc(-c3cn(C)c(=O)c4[nH]ccc34)cc21

IC50 [1]: 0.0093 µM | IC50 [2]: > 0.3 µM
Compound: CCCC(C)n1ccc2c(C(=O)NCc3c4c(c(C)[nH]c3=O)CCCC4)cc(-c3cn(C)c(=O)c4[nH]ccc34)cc21 (stereo unspecified)
